Test results published in ChEMBL document CHEMBL1201862, “PubChem BioAssay data set” (2004).
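Exposure lasted 48 hours, with cells grown in 96-well plates and compounds tested at five concentrations. GI50 is the concentration that inhibits growth by half.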 Activity calls are given as the source filed them. Cut-off read from the data, not from the text of the source: active = GI50 up to about 1.1 µM and inactive = higher.

How the values were obtained:
Assay in all cases: DTP human tumour cell line panel, 48 h
OVCAR-8 = test system: OVCAR-8
SK-OV-3 = test system: SK-OV-3
SK-MEL-5 = test system: SK-MEL-5
OVCAR-5 = test system: OVCAR-5
786-0 = test system: 786-0
TK-10 = test system: TK-10
RXF 393 = test system: RXF 393
BT-549 = test system: BT-549
PC-3 = test system: PC-3
UACC-257 = test system: UACC-257
SK-MEL-2 = test system: SK-MEL-2
HL-60 = test system: HL-60
COLO 205 = test system: COLO 205
SF-539 = test system: SF-539
NCI-H226 = test system: NCI-H226
MDA-N = test system: MDA-N
SK-MEL-28 = test system: SK-MEL-28
SW-620 = test system: SW-620
ACHN = test system: ACHN
SNB-75 = test system: SNB-75

Row | Structure (SMILES) | GI50 (OVCAR-8) | GI50 (SK-OV-3) | GI50 (SK-MEL-5) | GI50 (OVCAR-5) | GI50 (786-0) | GI50 (TK-10) | GI50 (RXF 393) | GI50 (BT-549) | GI50 (PC-3) | GI50 (UACC-257) | GI50 (SK-MEL-2) | GI50 (HL-60) | GI50 (COLO 205) | GI50 (SF-539) | GI50 (NCI-H226) | GI50 (MDA-N) | GI50 (SK-MEL-28) | GI50 (SW-620) | GI50 (ACHN) | GI50 (SNB-75)
1 | Cc1c(Cl)cc(C(C)(C)C)c(O)c1Cc1c(C)c(Cl)cc(C(C)(C)C)c1O | 1.49 µM (inactive) | 2.98 µM (inactive) | 0.762 µM (active) | 3.43 µM (inactive) | 1.73 µM (inactive) | 2.04 µM (inactive) | 0.9 µM (active) | 2.81 µM (inactive) | 1.64 µM (inactive) | 1.36 µM (inactive) | 1.73 µM (inactive) | 1.17 µM (inactive) | 1.12 µM (active) | 1.97 µM (inactive) | 2.22 µM (inactive) | 2.18 µM (inactive) | 2.33 µM (inactive) | 1.81 µM (inactive) | 1.29 µM (inactive) | 1.5 µM (inactive)
2 | CCOC(=O)c1ccc(C(=O)OCC)n1-c1cc2cc(c1)CSCc1cc(cc(-n3c(C(=O)OCC)ccc3C(=O)OCC)c1)CSC2 | > 10 µM (inactive) | > 10 µM (inactive) | > 10 µM (inactive) | > 10 µM (inactive) | > 10 µM (inactive) | > 10 µM (inactive) | > 10 µM (inactive) | > 10 µM (inactive) | > 10 µM (inactive) | > 10 µM (inactive) | > 10 µM (inactive) | > 10 µM (inactive) | > 10 µM (inactive) | > 10 µM (inactive) | > 10 µM (inactive) | > 10 µM (inactive) | > 10 µM (inactive) | > 10 µM (inactive) | > 10 µM (inactive) | > 10 µM (inactive)
3 | O=C(c1nc2ccc([N+](=O)[O-])cc2nc1O)C(O)c1ccc2c(c1)OCO2 (stereo not given) | > 100 µM (inactive) | > 100 µM (inactive) | 45.7 µM (inactive) | > 100 µM (inactive) | > 100 µM (inactive) | > 100 µM (inactive) | > 100 µM (inactive) | > 100 µM (inactive) | > 100 µM (inactive) | > 100 µM (inactive) | > 100 µM (inactive) | > 39.1 µM (inactive) | > 96.4 µM (inactive) | > 100 µM (inactive) | > 100 µM (inactive) | 70.8 µM (inactive) | > 100 µM (inactive) | > 100 µM (inactive) | > 100 µM (inactive) | > 100 µM (inactive)
4 | COC(=O)C1=C(C)NC(C)=C([N+](=O)[O-])C1c1cccc(NO)c1 (stereo not given) | 5.81 µM (inactive) | 7.38 µM (inactive) | 2.72 µM (inactive) | 14.7 µM (inactive) | 4.48 µM (inactive) | 5.12 µM (inactive) | 6.5 µM (inactive) | 4.51 µM (inactive) | 2.94 µM (inactive) | 4.61 µM (inactive) | 11.2 µM (inactive) | 2.8 µM (inactive) | 2.06 µM (inactive) | 6.11 µM (inactive) | 7.28 µM (inactive) | 1.79 µM (inactive) | 4.92 µM (inactive) | 4.17 µM (inactive) | 3.1 µM (inactive) | 6.89 µM (inactive)
5 | O=C1C=CC(=O)c2c1cc1ccccc1c2O | 2.58 µM (inactive) | 18.4 µM (inactive) | 12.1 µM (inactive) | 18.4 µM (inactive) | 7.67 µM (inactive) | 4.24 µM (inactive) | 2.11 µM (inactive) | 9.38 µM (inactive) | 6.03 µM (inactive) | 3.18 µM (inactive) | 14.4 µM (inactive) | 0.628 µM (active) | 2.4 µM (inactive) | 11.6 µM (inactive) | 20.1 µM (inactive) | 5.26 µM (inactive) | 9.25 µM (inactive) | 1.86 µM (inactive) | 2.84 µM (inactive) | 18.1 µM (inactive)
